Activity calls are given as the source filed them. The calls are words filed in the database; no cut-off is given here.
Legend:
[1] = molecular target: T1, Anoctamin-2 (Homo sapiens) (UniProt Q9NQ90); test: Inhibition of human ANO2 expressed in HEK293 cells at 30 uM incubated for 5 mins by whole cell patch clamp electrophysiology relative to control; type: cell-based
T1 sequence (whole entry): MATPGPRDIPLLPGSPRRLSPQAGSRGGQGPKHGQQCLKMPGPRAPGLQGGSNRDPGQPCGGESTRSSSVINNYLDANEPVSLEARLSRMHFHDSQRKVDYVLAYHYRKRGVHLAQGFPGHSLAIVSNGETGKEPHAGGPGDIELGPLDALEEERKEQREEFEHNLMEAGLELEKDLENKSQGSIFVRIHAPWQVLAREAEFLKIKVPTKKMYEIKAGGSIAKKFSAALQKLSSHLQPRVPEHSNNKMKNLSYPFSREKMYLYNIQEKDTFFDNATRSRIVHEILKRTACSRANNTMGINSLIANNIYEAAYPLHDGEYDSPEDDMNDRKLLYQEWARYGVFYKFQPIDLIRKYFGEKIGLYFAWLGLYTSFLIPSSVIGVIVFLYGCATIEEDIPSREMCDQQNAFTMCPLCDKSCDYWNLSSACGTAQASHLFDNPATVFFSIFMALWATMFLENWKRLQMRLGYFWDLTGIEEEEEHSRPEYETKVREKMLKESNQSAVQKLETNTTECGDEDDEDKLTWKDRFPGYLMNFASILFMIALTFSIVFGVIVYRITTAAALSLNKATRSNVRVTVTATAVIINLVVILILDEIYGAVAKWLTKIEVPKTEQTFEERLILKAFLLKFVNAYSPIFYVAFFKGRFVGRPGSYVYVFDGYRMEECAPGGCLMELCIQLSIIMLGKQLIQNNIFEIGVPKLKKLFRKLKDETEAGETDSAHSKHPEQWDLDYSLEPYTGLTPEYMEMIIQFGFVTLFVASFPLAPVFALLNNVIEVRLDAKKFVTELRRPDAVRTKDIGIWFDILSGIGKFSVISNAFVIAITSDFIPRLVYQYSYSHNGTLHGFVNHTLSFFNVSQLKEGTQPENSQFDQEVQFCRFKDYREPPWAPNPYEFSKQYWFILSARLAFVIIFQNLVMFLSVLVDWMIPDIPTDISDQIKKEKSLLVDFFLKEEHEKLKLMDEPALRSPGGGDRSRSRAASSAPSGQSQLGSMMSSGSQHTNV

[2] = molecular target: Voltage-gated inwardly rectifying potassium channel KCNH2 (Homo sapiens, UniProt Q12809); test: Cardiotoxicity against human ERG expressed in HEK293 cells by patch clamp assay; type: toxicity, cell-based
Sequence of Voltage-gated inwardly rectifying potassium channel KCNH2 (Q12809 whole entry): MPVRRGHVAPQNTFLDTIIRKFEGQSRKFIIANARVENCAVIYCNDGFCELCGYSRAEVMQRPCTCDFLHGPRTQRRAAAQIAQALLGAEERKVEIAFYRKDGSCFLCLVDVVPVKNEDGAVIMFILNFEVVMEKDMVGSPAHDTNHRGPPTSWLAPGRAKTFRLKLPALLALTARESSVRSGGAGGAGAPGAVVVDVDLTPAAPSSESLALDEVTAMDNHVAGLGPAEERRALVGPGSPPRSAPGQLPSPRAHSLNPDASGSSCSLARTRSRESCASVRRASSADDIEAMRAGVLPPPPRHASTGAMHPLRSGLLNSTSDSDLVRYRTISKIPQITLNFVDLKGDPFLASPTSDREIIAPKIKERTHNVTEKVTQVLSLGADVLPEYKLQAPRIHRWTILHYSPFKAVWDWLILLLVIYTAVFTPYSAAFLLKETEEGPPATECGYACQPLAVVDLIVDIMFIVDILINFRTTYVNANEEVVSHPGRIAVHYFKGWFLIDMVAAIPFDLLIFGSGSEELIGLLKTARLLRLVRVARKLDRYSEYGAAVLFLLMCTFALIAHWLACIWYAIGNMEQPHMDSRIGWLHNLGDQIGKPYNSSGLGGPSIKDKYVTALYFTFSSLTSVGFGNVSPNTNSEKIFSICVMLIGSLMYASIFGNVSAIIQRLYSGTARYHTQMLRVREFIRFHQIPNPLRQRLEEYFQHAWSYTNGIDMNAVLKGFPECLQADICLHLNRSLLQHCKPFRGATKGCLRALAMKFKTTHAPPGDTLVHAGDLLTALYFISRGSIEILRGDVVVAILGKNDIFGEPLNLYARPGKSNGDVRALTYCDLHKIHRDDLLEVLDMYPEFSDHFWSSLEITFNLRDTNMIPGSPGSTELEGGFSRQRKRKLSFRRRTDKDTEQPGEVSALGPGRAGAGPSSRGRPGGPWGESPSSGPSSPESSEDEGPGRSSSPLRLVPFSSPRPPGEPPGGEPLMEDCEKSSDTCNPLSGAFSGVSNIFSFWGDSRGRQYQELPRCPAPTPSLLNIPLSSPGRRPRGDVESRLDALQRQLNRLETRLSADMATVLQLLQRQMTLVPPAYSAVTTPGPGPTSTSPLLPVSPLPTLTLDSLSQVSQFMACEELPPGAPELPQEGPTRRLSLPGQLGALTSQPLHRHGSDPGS

[3] = molecular target: Sodium channel protein type 7 subunit alpha (Homo sapiens) (UniProt Q01118); test: Inhibition of Nav1.7 (unknown origin) in half-inactivated condition at 30 uM by whole cell patch clamp electrophysiology relative to control
Sequence of Sodium channel protein type 7 subunit alpha (Homo sapiens) (Q01118 whole entry): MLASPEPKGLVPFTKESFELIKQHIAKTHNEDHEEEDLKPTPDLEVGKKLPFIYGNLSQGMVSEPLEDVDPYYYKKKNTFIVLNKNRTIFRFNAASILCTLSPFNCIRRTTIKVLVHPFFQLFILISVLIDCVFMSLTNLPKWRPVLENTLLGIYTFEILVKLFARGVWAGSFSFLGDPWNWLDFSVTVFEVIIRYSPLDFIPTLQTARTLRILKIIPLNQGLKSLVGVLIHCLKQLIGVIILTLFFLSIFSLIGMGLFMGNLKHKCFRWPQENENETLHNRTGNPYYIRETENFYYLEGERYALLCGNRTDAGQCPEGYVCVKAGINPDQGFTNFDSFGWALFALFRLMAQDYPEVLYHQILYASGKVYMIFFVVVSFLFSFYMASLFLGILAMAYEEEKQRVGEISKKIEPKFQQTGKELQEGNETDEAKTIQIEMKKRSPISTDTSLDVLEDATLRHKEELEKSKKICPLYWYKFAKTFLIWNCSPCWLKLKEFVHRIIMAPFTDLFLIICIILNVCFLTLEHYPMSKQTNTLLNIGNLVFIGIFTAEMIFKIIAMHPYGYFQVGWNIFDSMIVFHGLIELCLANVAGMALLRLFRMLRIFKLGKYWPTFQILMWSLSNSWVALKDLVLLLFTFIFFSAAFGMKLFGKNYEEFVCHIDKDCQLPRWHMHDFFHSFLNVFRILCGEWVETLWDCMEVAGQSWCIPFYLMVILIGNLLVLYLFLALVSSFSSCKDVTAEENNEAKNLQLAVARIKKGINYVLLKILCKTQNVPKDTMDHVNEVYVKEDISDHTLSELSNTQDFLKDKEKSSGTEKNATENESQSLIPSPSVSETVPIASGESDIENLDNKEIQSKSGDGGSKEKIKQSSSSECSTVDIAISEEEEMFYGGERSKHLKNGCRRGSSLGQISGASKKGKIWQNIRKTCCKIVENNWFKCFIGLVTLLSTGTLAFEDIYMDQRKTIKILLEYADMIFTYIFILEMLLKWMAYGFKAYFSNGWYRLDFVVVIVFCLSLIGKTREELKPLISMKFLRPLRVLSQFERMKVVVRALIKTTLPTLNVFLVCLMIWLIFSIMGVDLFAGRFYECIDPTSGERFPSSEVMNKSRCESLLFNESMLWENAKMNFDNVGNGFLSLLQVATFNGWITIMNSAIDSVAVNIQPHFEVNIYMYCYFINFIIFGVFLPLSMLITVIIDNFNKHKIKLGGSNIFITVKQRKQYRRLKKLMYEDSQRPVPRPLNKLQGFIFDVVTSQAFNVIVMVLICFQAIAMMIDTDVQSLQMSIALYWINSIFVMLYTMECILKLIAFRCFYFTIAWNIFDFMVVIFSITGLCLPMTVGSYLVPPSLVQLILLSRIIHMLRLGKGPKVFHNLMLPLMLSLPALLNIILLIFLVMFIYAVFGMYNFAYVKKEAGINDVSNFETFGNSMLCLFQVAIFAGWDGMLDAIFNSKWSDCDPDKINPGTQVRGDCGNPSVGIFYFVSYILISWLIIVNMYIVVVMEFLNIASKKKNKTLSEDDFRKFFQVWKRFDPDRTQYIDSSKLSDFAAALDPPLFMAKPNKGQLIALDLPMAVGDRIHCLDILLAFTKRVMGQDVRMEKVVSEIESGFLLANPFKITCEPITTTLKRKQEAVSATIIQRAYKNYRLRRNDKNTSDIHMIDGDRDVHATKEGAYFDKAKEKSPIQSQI

[4] = molecular target: Voltage-gated potassium channel, KQT; KCNQ2(Kv7.2)/KCNQ3(Kv7.3) (Homo sapiens) (UniProt O43526+O43525); test: Inhibition of KCNQ2/3 (unknown origin) at a holding potential -40 mV at 30 uM by whole cell patch clamp electrophysiology relative to control
[5] = Tmax in C57BL/6 mouse at 40 mg/kg,iv measured upto 24 hrs by HPLC-MS/MS analysis; type: ADME, organism-based; conditions: in vivo
[6] = AUC (0 to t) in C57BL/6 mouse at 80 mg/kg,IG measured upto 24 hrs by HPLC-MS/MS analysis; type: ADME, organism-based; parameters: dose 80 mg/kg, time < 24 hrs, route ig; conditions: in vivo, po
[7] = Clearance in C57BL/6 mouse at 40 mg/kg,iv measured upto 24 hrs by HPLC-MS/MS analysis; type: ADME, organism-based; conditions: in vivo
[8] = Ratio of drug concentration in brain to plasma in C57BL/6 mouse at 40 mg/kg,IG measured after 6 hrs by HPLC analysis; type: ADME, organism-based; conditions: po
[9] = Ratio of drug concentration in brain to plasma in C57BL/6 mouse at 40 mg/kg,IG measured after 24 hrs by HPLC analysis; type: ADME, organism-based; conditions: po
[10] = Cytotoxicity against human HEK293 cells assessed as inhibition of cell growth at 30 uM incubated for 72 hrs by CCK-8 assay; type: toxicity, cell-based
[11] = system: Mus musculus; test: Analgesic activity in C57BL/6 mouse model of formalin-induced allodynia assessed as reduction on foot licking pain response at 40 to 80 mg/kg,po measured at 15 to 60 mins; type: functional, organism-based; conditions: dose 40-80 mg/kg, time 15-60 min, DDE = dose-dependent effect
[12] = system: Mus musculus; test: Analgesic activity in C57BL/6 mouse model of CFA-induced mechanical hyperalgesia assessed as […] at 40 to 80 mg/kg,po measured after 7 days by Von Frey test; type: functional, organism-based; conditions: dose 40-80 mg/kg, time 7.0 day

With `O=C(Nc1scc(-c2ccc(Cl)cc2)c1C(=O)O)c1cc(F)ccc1F` the inhibition [1] was 72.8%, the IC50 [2] was > 30 µM and the inhibition [3] was 6.5%. For the same compound, the inhibition [4] was 21.4%, the Tmax [5] was 4.8 min and the AUC(0-t) at 24 h [6] was 596 µg·h/mL. The clearance [7] was 1.73 mL/min/kg, the Ratio [8] was 1.4% and the Ratio [9] was 4.5%. The inhibition at 72 h, 30 µM [10] was < 10%, the Activity [11] was “Dde” and the Activity [12] was “Active”.

Reference: ChEMBL document CHEMBL5120859, “Optimization of 4-arylthiophene-3-carboxylic acid derivatives as inhibitors of ANO1: Lead optimization studies toward their analgesic efficacy for inflammatory pain” (Eur J Med Chem, 2022)
